Reference: patent US8049063B2 (Zhejiang University, priority 2005, dated 2011)

Assays:
8077S calli = format: cell-based, rice
Description: FIG. 6. Bensulfuron-methyl selection results of Cyp81A6-transformed 8077S calli. Left: transgenic; right: non-transgenic control.
(§1) The full length sequence of candidate gene Cyp81A6 was obtained through lump-sum amplification using LA TaqTM polymerase reagent kit purchased from Takara Company. The long fragment PCR specific primer pairs (forward primer: 5′-[…]-3′ (SEQ ID NO: 40); reverse primer: 5″-[…]-3′ (SEQ ID NO: 41), synthesized by Shanghai Sangon) used in this experiment were designated at a start from 124 bp before and end with 4145 bp after BamHI enzyme digestion site located at 5′-end of Cyp81A6 gene, respectively, according to the DNA sequence publicized by indica rice genome database. According to the designing, these primers have a BstEII enzyme cutting site attached to the 3′-end of the primers, which is convenient for production of cohesive end and ligation during cloning. The amplified fragment with the total size of […] by this pair of primers is consisted of those parts: 124 bp upstream sequence of the BamHI digestion site, 1321 bp promoter sequence, 2321 bp sequence of leader region plus exon plus intron , 272 bp 3′-UTR sequence, followed by 288 bp genome sequence (including the 7 bp BstEII recognition site and 5 bp protection base). […]

[1] = test system: Cyp81A6 transgenic 8077S plants; assay: Bentazon test of Cyp81A6 transgenic 8077S seedlings (complementation); format: in vivo, rice
Description: FIG. 7. […] Left: negative control of 8077S; middle: transgenic seedling; right: positive control of W6154S.
as §1

[2] = test system: Cyp81A6 antisense RNA transformed Minghui 63 plants; assay: Bentazon leaf smear test of Cyp81A6 antisense RNA transformed Minghui 63 plants; format: in vivo, rice; conditions: 1250 mg/L smeared on leaves, 3 leaves/plant; antisense transgenic Minghui 63; 36 hours later
Description: Design anti-sense RNA (RNAi) sequences (see the 1939th to 2439th nucleotide sequence of SEQ ID NO.1) in according with the coding sequence of the cloned rice Cyp81A6 gene. Fuse these antisense RNA (RNAi) sequence to the rice constitutive expression promoter such as Actin1 and then insert them into the binary vectors of pAANT11 (see FIG. 16). Use this vector to transform wild-type rice such as Minghui 63 using the modified procedures of Agrobacterium-mediated transformation method. After that, use the specific primers to carry on the PCR amplification analysis of transgenic TO generation plants for molecular confirmation.

COC(=O)c1ccccc1CS(=O)(=O)NC(=O)Nc1nc(OC)cc(OC)n1 [BSM, bensulfuron-methyl]
growth of non-transgenic calli on herbicide medium (8077S calli): stop to grow

CC(C)N1C(=O)c2ccccc2NS1(=O)=O [bentazon]
response of PCR-positive Cyp81A6 transformants to bentazon ([1]; 1250 mg/l, regenerated transgenic 8077S plantlets): recovered the resistance
resistance of transgenic line carrying the entire CYP81A6 sequence ([1]; 8077S mutant genome transformed with entire CYP81A6 gene): highly resistant
outcome of treated leaves and plants [2]: faded and died
